In ChEMBL document CHEMBL1145498, “A systematic interaction map of validated kinase inhibitors with Ser/Thr kinases” (Proc Natl Acad Sci U S A, 2007):

Tests used:
[1] = target: T1, Myotonin-protein kinase (Homo sapiens) (UniProt Q09013)
T1 sequence (whole entry): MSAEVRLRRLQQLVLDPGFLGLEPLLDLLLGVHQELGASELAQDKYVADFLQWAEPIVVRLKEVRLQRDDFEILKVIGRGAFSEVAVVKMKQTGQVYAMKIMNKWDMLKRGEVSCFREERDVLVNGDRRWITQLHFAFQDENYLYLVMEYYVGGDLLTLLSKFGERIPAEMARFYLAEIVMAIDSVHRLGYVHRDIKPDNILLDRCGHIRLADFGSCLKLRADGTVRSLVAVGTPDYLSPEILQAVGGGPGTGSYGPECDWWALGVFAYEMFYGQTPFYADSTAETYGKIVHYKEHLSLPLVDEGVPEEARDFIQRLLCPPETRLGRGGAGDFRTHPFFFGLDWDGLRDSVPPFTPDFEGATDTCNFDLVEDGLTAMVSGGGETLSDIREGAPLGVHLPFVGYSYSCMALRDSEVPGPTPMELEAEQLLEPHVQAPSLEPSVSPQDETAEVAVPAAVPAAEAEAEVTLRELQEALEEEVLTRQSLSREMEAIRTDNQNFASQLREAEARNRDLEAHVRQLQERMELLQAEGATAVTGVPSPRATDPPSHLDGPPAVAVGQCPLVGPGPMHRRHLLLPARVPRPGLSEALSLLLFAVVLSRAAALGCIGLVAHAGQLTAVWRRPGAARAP

[2] = target: Serine/threonine-protein kinase OSR1 (Homo sapiens) (UniProt O95747)
Sequence of Serine/threonine-protein kinase OSR1 (Homo sapiens) (O95747 2-527 limits assumed): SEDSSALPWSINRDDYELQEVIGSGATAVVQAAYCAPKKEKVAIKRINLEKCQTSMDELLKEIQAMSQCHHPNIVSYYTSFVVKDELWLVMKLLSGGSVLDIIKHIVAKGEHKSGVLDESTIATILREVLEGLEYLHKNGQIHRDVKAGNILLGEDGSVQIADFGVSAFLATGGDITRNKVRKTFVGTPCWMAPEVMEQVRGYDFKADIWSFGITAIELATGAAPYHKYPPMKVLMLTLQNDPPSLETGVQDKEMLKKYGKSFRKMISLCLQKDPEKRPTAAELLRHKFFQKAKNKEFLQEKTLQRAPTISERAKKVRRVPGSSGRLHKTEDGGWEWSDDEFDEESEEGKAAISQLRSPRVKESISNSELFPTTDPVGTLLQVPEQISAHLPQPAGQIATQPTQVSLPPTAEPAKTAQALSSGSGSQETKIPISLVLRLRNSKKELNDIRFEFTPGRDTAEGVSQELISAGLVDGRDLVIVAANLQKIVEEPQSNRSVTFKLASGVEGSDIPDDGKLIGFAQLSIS

[3] = target: Serine/threonine-protein kinase pim-1 (Homo sapiens) (UniProt P11309)
[4] = target: Tyrosine-protein kinase JAK1 (Homo sapiens) (UniProt P23458)
Sequence of Tyrosine-protein kinase JAK1 (Homo sapiens) (P23458 whole entry): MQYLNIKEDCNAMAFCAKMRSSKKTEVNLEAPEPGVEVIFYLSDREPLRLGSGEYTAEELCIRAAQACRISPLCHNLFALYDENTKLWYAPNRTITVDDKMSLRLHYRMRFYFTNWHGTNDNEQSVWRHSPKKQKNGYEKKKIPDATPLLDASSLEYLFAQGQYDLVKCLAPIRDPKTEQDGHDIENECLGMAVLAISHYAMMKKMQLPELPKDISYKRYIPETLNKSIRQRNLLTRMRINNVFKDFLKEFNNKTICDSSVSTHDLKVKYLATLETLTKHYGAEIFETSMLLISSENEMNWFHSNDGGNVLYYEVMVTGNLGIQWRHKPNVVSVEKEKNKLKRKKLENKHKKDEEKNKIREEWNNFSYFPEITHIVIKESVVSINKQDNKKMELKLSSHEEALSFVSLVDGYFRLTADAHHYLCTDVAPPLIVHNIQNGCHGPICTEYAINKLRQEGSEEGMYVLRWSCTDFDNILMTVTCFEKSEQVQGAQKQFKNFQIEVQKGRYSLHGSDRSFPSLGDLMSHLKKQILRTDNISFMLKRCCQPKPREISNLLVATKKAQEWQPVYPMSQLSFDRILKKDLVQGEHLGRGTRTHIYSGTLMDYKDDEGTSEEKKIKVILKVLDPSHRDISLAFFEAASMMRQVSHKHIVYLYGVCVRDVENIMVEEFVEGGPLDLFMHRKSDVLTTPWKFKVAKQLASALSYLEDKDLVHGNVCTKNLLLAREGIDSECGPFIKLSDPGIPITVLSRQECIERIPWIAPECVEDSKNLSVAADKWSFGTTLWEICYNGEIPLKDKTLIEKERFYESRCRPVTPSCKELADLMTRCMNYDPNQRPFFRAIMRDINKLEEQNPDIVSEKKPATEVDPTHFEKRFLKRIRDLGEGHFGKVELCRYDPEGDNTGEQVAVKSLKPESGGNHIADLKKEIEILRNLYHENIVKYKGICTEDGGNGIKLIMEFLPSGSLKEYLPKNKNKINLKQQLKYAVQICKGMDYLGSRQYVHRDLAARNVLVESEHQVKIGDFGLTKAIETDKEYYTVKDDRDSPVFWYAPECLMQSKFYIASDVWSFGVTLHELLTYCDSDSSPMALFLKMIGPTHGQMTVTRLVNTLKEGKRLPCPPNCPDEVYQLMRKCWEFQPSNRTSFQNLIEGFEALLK

[5] = target: T2, 3-phosphoinositide-dependent protein kinase 1 (Homo sapiens) (UniProt O15530)
T2 sequence (whole entry): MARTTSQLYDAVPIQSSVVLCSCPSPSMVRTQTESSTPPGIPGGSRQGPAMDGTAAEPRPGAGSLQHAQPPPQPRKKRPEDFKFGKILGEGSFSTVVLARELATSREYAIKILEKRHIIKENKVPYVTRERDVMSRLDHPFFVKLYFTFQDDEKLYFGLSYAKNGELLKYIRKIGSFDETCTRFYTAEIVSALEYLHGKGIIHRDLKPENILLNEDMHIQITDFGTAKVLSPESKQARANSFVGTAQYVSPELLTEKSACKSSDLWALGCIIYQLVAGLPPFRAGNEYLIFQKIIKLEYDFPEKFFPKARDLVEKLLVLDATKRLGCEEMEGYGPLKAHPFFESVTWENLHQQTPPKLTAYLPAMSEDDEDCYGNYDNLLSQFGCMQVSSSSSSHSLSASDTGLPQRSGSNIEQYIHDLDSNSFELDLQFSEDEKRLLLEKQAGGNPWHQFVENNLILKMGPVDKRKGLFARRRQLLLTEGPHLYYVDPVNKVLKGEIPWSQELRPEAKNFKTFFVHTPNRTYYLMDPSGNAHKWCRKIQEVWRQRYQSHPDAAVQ

[6] = target: Serine/threonine-protein kinase PAK 4 (Homo sapiens) (UniProt O96013)
Sequence of Serine/threonine-protein kinase PAK 4 (Homo sapiens) (O96013 whole entry, looked up): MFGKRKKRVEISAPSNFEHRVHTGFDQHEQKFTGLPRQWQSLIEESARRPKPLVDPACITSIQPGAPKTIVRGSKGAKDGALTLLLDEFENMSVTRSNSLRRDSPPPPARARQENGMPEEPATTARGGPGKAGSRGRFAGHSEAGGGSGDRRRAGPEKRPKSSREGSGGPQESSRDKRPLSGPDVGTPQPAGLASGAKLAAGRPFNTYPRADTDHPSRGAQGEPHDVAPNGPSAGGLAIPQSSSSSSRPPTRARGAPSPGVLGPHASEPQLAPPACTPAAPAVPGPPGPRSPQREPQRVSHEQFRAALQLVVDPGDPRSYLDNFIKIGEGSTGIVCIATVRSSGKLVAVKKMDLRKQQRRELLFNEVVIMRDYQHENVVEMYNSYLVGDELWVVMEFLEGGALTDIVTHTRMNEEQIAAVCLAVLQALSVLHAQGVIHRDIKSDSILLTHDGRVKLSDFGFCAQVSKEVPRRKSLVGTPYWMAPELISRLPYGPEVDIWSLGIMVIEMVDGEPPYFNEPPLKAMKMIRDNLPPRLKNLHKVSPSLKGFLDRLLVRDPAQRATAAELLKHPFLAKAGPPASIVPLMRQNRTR

[7] = target: Dual specificity protein kinase CLK1 (Homo sapiens) (UniProt P49759)
Sequence of Dual specificity protein kinase CLK1 (Homo sapiens) (P49759 whole entry, looked up): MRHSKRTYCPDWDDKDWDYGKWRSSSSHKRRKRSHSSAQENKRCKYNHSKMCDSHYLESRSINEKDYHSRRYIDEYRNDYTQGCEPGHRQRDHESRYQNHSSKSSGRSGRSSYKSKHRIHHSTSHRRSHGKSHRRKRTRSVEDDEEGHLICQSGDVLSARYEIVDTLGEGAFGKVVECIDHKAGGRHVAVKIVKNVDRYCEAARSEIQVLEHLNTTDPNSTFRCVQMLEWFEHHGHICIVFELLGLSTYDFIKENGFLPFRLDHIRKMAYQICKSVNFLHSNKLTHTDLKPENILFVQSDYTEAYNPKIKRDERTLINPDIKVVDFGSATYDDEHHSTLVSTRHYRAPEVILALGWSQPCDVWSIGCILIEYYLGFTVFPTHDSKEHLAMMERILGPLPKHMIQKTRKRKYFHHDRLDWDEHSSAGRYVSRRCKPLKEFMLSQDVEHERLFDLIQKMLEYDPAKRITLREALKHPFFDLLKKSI

[8] = target: Ribosomal protein S6 kinase alpha-3 (Homo sapiens) (UniProt P51812)
Sequence of Ribosomal protein S6 kinase alpha-3 (Homo sapiens) (P51812 whole entry): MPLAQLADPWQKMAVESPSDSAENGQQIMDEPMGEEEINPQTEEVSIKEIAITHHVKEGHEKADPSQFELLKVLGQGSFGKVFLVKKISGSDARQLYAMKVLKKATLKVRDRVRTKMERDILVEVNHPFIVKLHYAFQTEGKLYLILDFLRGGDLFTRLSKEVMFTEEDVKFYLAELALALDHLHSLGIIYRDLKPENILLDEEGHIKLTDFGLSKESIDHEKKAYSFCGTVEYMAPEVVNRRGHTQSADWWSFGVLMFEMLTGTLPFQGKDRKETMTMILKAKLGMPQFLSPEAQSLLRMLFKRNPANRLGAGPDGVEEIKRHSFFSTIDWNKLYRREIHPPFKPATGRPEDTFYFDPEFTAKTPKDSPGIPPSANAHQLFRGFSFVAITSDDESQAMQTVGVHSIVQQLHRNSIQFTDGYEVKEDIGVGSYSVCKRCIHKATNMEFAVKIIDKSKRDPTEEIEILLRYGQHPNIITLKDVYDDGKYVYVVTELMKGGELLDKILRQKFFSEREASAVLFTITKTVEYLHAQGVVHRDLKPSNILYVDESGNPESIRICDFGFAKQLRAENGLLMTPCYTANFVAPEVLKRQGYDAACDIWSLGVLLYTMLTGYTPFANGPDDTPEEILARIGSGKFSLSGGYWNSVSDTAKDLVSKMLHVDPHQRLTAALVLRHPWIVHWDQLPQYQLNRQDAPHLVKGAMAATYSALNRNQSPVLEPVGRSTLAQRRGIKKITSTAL

[9] = target: Calcium/calmodulin-dependent protein kinase type 1G (Homo sapiens) (UniProt Q96NX5)
[10] = target: Casein kinase I isoform gamma-3 (Homo sapiens) (UniProt Q9Y6M4)
Sequence of Casein kinase I isoform gamma-3 (Homo sapiens) (Q9Y6M4 whole entry, looked up, canonical isoform): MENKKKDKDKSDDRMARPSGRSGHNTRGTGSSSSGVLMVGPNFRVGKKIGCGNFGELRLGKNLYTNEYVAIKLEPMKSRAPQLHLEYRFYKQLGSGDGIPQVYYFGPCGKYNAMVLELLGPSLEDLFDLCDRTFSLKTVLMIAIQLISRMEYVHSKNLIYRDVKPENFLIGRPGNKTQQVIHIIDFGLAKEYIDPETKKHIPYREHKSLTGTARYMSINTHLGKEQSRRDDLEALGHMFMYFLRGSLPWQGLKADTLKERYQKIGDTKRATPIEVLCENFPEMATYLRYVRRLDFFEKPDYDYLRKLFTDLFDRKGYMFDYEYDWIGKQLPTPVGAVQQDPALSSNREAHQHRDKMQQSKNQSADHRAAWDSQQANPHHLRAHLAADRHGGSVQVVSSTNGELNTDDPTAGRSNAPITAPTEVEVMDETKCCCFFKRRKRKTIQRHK

[11] = target: T3, Calcium/calmodulin-dependent protein kinase type IV (Homo sapiens) (UniProt Q16566)
T3 sequence (whole entry): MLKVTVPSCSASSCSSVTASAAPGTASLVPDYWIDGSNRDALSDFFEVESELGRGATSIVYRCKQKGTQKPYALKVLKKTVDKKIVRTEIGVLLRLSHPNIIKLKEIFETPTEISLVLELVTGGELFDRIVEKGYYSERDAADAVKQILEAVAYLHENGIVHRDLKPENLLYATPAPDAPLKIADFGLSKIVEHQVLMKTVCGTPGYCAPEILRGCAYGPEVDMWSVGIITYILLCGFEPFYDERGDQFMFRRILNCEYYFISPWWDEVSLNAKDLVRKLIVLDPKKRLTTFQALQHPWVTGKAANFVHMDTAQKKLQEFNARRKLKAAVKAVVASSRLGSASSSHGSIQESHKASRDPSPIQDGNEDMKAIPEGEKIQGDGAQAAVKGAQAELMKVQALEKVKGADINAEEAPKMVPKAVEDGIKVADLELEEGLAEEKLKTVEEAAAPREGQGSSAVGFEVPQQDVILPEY

[12] = target: Cyclin-dependent kinase-like 1 (Homo sapiens) (UniProt Q00532)
Sequence of Cyclin-dependent kinase-like 1 (Homo sapiens) (Q00532 whole entry): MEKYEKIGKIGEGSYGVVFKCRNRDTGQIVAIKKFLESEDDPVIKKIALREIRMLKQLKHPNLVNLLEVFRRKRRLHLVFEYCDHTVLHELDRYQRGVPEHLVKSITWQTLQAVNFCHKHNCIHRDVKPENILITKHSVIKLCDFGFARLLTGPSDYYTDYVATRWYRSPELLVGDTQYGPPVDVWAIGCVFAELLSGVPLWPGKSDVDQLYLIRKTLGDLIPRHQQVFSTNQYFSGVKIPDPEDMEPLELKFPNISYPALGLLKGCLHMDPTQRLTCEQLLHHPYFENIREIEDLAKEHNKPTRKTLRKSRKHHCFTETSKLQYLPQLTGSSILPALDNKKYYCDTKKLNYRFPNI

[13] = target: Serine/threonine-protein kinase PAK 5 (Homo sapiens) (UniProt Q9P286)
Sequence of Serine/threonine-protein kinase PAK 5 (Homo sapiens) (Q9P286 whole entry, looked up): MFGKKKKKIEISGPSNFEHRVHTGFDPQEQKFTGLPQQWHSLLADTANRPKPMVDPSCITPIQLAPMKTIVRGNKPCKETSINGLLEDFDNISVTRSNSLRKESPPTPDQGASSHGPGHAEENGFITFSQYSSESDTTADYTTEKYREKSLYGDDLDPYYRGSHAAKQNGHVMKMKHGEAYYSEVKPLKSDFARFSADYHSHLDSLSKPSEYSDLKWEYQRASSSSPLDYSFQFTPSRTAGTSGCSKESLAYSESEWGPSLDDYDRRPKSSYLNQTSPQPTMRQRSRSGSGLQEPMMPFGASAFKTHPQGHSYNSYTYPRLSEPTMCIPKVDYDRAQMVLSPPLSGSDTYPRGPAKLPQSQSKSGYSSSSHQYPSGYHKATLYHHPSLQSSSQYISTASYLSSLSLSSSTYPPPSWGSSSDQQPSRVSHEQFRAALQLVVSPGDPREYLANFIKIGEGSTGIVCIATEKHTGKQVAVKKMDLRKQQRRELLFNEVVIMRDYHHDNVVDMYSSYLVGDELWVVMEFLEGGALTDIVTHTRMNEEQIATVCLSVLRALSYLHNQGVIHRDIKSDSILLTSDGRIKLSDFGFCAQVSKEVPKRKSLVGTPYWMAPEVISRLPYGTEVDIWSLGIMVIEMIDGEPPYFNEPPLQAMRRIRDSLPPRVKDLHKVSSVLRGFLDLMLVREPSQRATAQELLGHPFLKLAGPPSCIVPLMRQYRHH

[14] = target: T4, Serine/threonine-protein kinase 4 (Homo sapiens) (UniProt Q13043)
T4 sequence (whole entry): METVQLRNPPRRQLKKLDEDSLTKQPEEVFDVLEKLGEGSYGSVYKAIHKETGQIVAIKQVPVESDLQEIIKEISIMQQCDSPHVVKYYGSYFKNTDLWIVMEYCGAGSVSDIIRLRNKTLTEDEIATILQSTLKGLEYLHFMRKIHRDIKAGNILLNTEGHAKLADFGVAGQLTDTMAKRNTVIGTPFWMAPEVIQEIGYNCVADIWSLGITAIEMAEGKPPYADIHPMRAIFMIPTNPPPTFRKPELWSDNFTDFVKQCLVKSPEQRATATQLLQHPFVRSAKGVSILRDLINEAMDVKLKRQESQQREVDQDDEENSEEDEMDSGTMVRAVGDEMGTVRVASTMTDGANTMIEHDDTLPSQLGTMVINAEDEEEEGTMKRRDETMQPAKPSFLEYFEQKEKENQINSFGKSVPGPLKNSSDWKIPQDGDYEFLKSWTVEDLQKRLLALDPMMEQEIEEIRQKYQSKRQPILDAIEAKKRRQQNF

Compound | ΔTm [1] [°C] | ΔTm [2] [°C] | ΔTm [3] [°C] | ΔTm [4] [°C] | ΔTm [5] [°C] | ΔTm [6] [°C] | ΔTm [7] [°C] | ΔTm [8] [°C] | ΔTm [9] [°C] | ΔTm [10] [°C] | ΔTm [11] [°C] | ΔTm [12] [°C] | ΔTm [13] [°C] | ΔTm [14] [°C]
C#Cc1cccc(Nc2ncnc3cc(OCCOC)c(OCCOC)cc23)c1 | 3.4 | 0 | 0 | -0.1 | 0 | 1.6 | -0.5 | -0.2 | 0 | 0.2 | 0.1 | 0 | 0.1 | 0.5
COc1cc2ncnc(Nc3ccc(F)c(Cl)c3)c2cc1OCCCN1CCOCC1 | 3.6 | 0.2 | 3.4 | 1.2 | -0.5 | 1.2 | 0.7 | 1.3 | 1 | 0.3 | 0.6 | 0.2 | 0.2 | 1.6
O=c1ccc2ccc(O)c(O)c2o1 [DAPHNETIN] | -0.6 | 0.1 | 0.2 | 0.2 | 0 | 0 | 0 | 0 | 0 | 0.4 | -0.1 | 0.3 | -0.1 | 0
Cn1cc(C2=C(c3cn(CCCN)c4ccccc34)C(=O)NC2=O)c2ccccc21 | 6.9 | -0.1 | 8.3 | -0.5 | -0.1 | 4.3 | 8.2 | 8.1 | 0.3 | 0.4 | 1.7 | 2.7 | 1.4 | 2.2
Cn1cc(C2=C(c3cn(CCCSC(=N)N)c4ccccc34)C(=O)NC2=O)c2ccccc21 | 7.1 | -0.5 | 9.7 | 0 | 0.1 | 3.4 | 9.6 | 10 | 3.1 | 1 | 3.2 | 2.2 | 1.9 | 7.4
Nc1n[nH]c2nnc(-c3c(-c4ccccc4)nn4ccccc34)cc12 | 2.3 | 0.3 | 1.1 | 0.3 | 1 | -0.1 | 0.7 | 3 | 0.1 | 1.1 | 0.7 | 0.2 | -0.4 | 0.4
OC[C@H]1O[C@@H](n2cnc3cc(Cl)c(Cl)cc32)[C@H](O)[C@@H]1O | 0.1 | 0.4 | 3.2 | 0 | 0.1 | -0.9 | 3.1 | 1.3 | -0.1 | 1 | 0.2 | -0.2 | 0.2 | 0.2
Oc1cccc(-c2nc(N3CCOCC3)c3oc4ncccc4c3n2)c1 | -0.7 | 2 | -0.4 | 0.1 | 0.1 | 0.7 | 0.6 | 0.1 | 0.1 | 0.1 | 0 | -0.3 | 0.8 | -0.1
COc1cc2ncnc(Nc3cccc(Br)c3)c2cc1OC | 0.3 | 0.6 | 0.7 | 2.7 | 0 | 0.2 | 1.7 | 1.5 | 0 | -0.1 | 0.1 | 0.1 | 0.3 | 1.5
